# Key:
# [1] = tested on: B cell; assay: Induction of anti-IgM-stimulated human CD20+ B cell activation at 10 to 1000 uM assessed as increase in CD69 expression measured as mean fluorescence intensity AUC by flow cytometry analysis; format: functional, cell-based; settings: dose 10-1000 µM
# [2] = Induction of anti-CD3/CD28 antibodies-stimulated human T cell activation at 4 uM assessed fold increase in IL-2 secretion measured by ELISA assay; format: functional, T cell line
# [3] = Induction of anti-CD3/CD28 antibodies-stimulated human anergic T cell activation at 1.11 uM assessed fold increase in IFN-gamma secretion measured by ELISA assay; format: functional, T cell line
# [4] = Induction of anti-CD3/CD28 antibodies-stimulated human CD4+ T cell activation at 10 uM assessed fold increase in cell proliferation measured by flow cytometry analysis; format: functional, T cell line
# [5] = Induction of anti-CD3 antibodies-stimulated human T cell activation at 10 uM assessed fold increase in IFN-gamma secretion measured by ELISA assay; format: functional, T cell line; also: reference of the scale not given here
# [6] = Induction of allogenic human T cell activation at 10 uM assessed fold increase in cell proliferation; format: functional, T cell line
# [7] = Induction of anti-CD3/CD28 antibodies-stimulated human CD4+ T cell activation at 1.11 uM assessed fold increase in cell proliferation measured by flow cytometry analysis; format: functional, T cell line
# [8] = Induction of anti-CD3 antibodies-stimulated human CD8+ T cell activation at 1.11 uM assessed fold increase in CD69 expression measured by flow cytometry analysis; format: functional, T cell line; also: reference of the scale not given here
# [9] = Induction of anti-CD3/CD28 antibodies-stimulated human T cell activation at 10 uM assessed fold increase in GM-CSF secretion measured by ELISA assay; format: functional, T cell line
# [10] = Induction of activation of human CD56+ CD3- NK cells co-cultured with human K562 cells in 1:1 ratio and assessed as increase in IFN-gamma secretion at 0.625 uM measured by ELISA assay; format: functional, Natural killer cell
# [11] = Induction of anti-CD3 antibodies-stimulated human CD4+ T cell activation at 10 uM assessed fold increase in CD69 expression measured by flow cytometry analysis; format: functional, T cell line; also: reference of the scale not given here
# [12] = Induction of anti-CD3/CD28 antibodies-stimulated human T cell activation at 0.3 uM assessed fold increase in IL-2 secretion measured by ELISA assay; format: functional, T cell line
# [13] = Induction of anti-CD3 antibodies-stimulated human T cell activation at 1 uM assessed fold increase in IL-2 secretion measured by ELISA assay; format: functional, T cell line; also: reference of the scale not given here
# [14] = Induction of allogenic human T cell activation at 3 uM assessed fold increase in cell proliferation; format: functional, T cell line
# [15] = Induction of anti-CD3 antibodies-stimulated human exhausted T cell activation assessed fold increase in IFN-gamma secretion measured by ELISA assay; format: functional, T cell line; also: reference of the scale not given here
# [16] = Induction of activation of human CD56+ CD3- NK cells co-cultured with human K562 cells in 1:1 ratio and assessed as increase in TNF-alpha secretion at 0.625 uM measured by ELISA assay; format: functional, Natural killer cell
# [17] = Induction of activation of human CD56+ CD3- NK cells co-cultured with human K562 cells in 1:1 ratio and assessed as increase in IFN-gamma secretion at 10 uM measured by ELISA assay; format: functional, Natural killer cell
# [18] = Induction of anti-CD3 antibodies-stimulated human T cell activation at 1.11 uM assessed fold increase in GM-CSF secretion measured by ELISA assay; format: functional, T cell line; also: reference of the scale not given here
# [19] = Induction of anti-CD3 antibodies-stimulated human T cell activation at 1 uM assessed fold increase in CD25 expression measured by ELISA assay; format: functional, T cell line; also: reference of the scale not given here
# [20] = Induction of anti-CD3 antibodies-stimulated human T cell activation at 8 uM assessed fold increase in IL-2 secretion measured by ELISA assay; format: functional, T cell line; also: reference of the scale not given here
# [21] = Induction of anti-CD3/CD28 antibodies-stimulated human T cell activation at 4 uM assessed fold increase in CD25 expression measured by ELISA assay; format: functional, T cell line
# [22] = Induction of anti-CD3 antibodies-stimulated human T cell activation at 1.11 uM assessed fold increase in IFN-gamma secretion measured by ELISA assay; format: functional, T cell line; also: reference of the scale not given here
# [23] = Induction of anti-CD3 antibodies-stimulated human T cell activation at 10 uM assessed fold increase in GM-CSF secretion measured by ELISA assay; format: functional, T cell line; also: reference of the scale not given here
# [24] = Induction of anti-CD3 antibodies-stimulated human exhausted T cell activation assessed fold increase in GM-CSF secretion measured by ELISA assay; format: functional, T cell line; also: reference of the scale not given here
# [25] = Induction of anti-CD3/CD28 antibodies-stimulated human CD8+ T cell activation at 1.11 uM assessed fold increase in CD69 expression measured by flow cytometry analysis; format: functional, T cell line
# [26] = Induction of anti-CD3/CD28 antibodies-stimulated human T cell activation at 10 uM assessed fold increase in IFN-gamma secretion measured by ELISA assay; format: functional, T cell line
# [27] = Induction of anti-CD3 antibodies-stimulated human CD4+ T cell activation at 1.11 uM assessed fold increase in CD69 expression measured by flow cytometry analysis; format: functional, T cell line; also: reference of the scale not given here
# [28] = Induction of anti-CD3 antibodies-stimulated human exhausted T cell activation assessed fold increase in IL-2 secretion measured by ELISA assay; format: functional, T cell line; also: reference of the scale not given here
# [29] = Induction of anti-CD3/CD28 antibodies-stimulated human CD8+ T cell activation at 1.11 uM assessed fold increase in cell proliferation measured by flow cytometry analysis; format: functional, T cell line
# [30] = Induction of anti-CD3/CD28 antibodies-stimulated human T cell activation at 0.3 uM assessed fold increase in CD25 expression measured by ELISA assay; format: functional, T cell line
# [31] = Induction of activation of human CD56+ CD3- NK cells co-cultured with human K562 cells in 1:1 ratio and assessed as increase in TNF-alpha secretion at 2.5 uM measured by ELISA assay; format: functional, Natural killer cell
# [32] = Induction of anti-CD3/CD28 antibodies-stimulated human CD4+ T cell activation at 10 uM assessed fold increase in CD69 expression measured by flow cytometry analysis; format: functional, T cell line
# [33] = Induction of anti-CD3/CD28 antibodies-stimulated human anergic T cell activation at 10 uM assessed fold increase in IFN-gamma secretion measured by ELISA assay; format: functional, T cell line
# [34] = Induction of anti-CD3/CD28 antibodies-stimulated human CD8+ T cell activation at 10 uM assessed fold increase in cell proliferation measured by flow cytometry analysis; format: functional, T cell line
# [35] = Induction of anti-CD3 antibodies-stimulated human exhausted CD4+ T cell activation assessed fold increase in CTLA4 expression measured by flow cytometry analysis; format: functional, T cell line; also: reference of the scale not given here
# [36] = Induction of anti-CD3/CD28 antibodies-stimulated human T cell activation at 1 uM assessed fold increase in CD25 expression measured by ELISA assay; format: functional, T cell line
# [37] = Induction of anti-CD3 antibodies-stimulated human CD8+ T cell activation at 10 uM assessed fold increase in CD69 expression measured by flow cytometry analysis; format: functional, T cell line; also: reference of the scale not given here
# [38] = Induction of anti-CD3/CD28 antibodies-stimulated human T cell activation at 1.11 uM assessed fold increase in IFN-gamma secretion measured by ELISA assay; format: functional, T cell line
# [39] = Induction of anti-CD3 antibodies-stimulated human T cell activation at 8 uM assessed fold increase in CD25 expression measured by ELISA assay; format: functional, T cell line; also: reference of the scale not given here
Compound,AUC [1],fold change (FC) [2],fold change (FC) [3],fold change (FC) [4],fold change (FC) [5],fold change (FC) [6],fold change (FC) [7],fold change (FC) [8],fold change (FC) [9],fold change (FC) [10],fold change (FC) [11],fold change (FC) [12],fold change (FC) [13],fold change (FC) [14],fold change (FC) [15],fold change (FC) [16],fold change (FC) [17],fold change (FC) [18],fold change (FC) [19],fold change (FC) [20],further results
Cn1cnnc1C(F)(F)[C@](C)(F)c1cccc(N2Cc3c(cc(C(=O)N4CC[C@H](O)C4)cc3C(F)(F)F)C2=O)c1,< 0.5,>=7.5,<=2.5,>4,2.01,<=2,3.01,<=1.2,2.01,1.01,>1.601,1.01,0.101,<=2,<=1.4,1.01,<=1,<=1.5,0.801,>=0.201,fold change (FC) [21]: 1.31; fold change (FC) [22]: <=2; fold change (FC) [23]: 2.01; fold change (FC) [24]: <=1.4; fold change (FC) [25]: <=1.2; fold change (FC) [26]: 2.01; fold change (FC) [27]: 1.201; fold change (FC) [28]: 2.51; fold change (FC) [29]: <=2; fold change (FC) [30]: 1.01; fold change (FC) [31]: 1.01; fold change (FC) [32]: 1.401; fold change (FC) [33]: >4.01; fold change (FC) [34]: 3.01; fold change (FC) [35]: <=1.4; fold change (FC) [36]: 1.01; fold change (FC) [37]: 1.201; fold change (FC) [38]: <=2; fold change (FC) [39]: >=1.001
Cn1cnnc1[C@@H]1C[C@@H]1c1cccc(N2Cc3c(cccc3C(F)(F)F)C2=O)c1,0.5,2.51,<=2.5,>4,2.01,<=2,<=2,<=1.2,2.01,2.01,1.201,<=1,<=0.05,<=2,1.41,1.01,2.01,<=1.5,0.601,<=0.05,fold change (FC) [21]: >=1.76; fold change (FC) [22]: <=2; fold change (FC) [23]: 2.01; fold change (FC) [24]: <=1.4; fold change (FC) [25]: <=1.2; fold change (FC) [26]: 2.01; fold change (FC) [27]: <=1.2; fold change (FC) [28]: 2.51; fold change (FC) [29]: <=2; fold change (FC) [30]: >=1.76; fold change (FC) [31]: 1.01; fold change (FC) [32]: 1.201; fold change (FC) [33]: <=2.5; fold change (FC) [34]: 2.01; fold change (FC) [35]: <=1.4; fold change (FC) [36]: >=1.76; fold change (FC) [37]: <=1.2; fold change (FC) [38]: <=2; fold change (FC) [39]: >=1.001
